Measurements taken from patent publication US20260209260A1, “VECTORIZED NHC IRIDIUM(III) COMPLEXES AND USE THEREOF IN PHOTODYNAMIC THERAPY AND/OR DIAGNOSTIC” (CENTRE NATIONAL DE LA RECHERCHE SCIENTIFIQUE, priority 2022, published 2026).
Like-named read-outs stand apart in the source and are kept apart here.

Assays:
Type in all cases: cell-based, Human
A549 lung cancer cells = experiment: Cell viability assay (MTT), dark and blue light
Protocol: (§1) Cells were grown in humidified incubators at 37° C. in 5% CO2. Murine MC3T3 osteoblast and NIH-3T3 fibroblast cells-used as non-tumor cell models-were cultured in a-MEM medium and DMEM medium supplemented with 10% fetal bovine serum (FBS) and 1% Penicillin/Streptomycin (P/S) antibiotics, respectively. Human T24 bladder, MGHU3 bladder, Scaber bladder, A549 lung, MCF7 breast, MiaPaCa2 pancreas cancer cells were cultured in DMEM medium supplemented with 10% FBS and 1% P/S antibiotics. […] Human Hela cervix and HepG2 liver cancer cells were cultured EMEM medium supplemented with 10% FBS and 1% P/S antibiotics.
(§2) MTT reagent (3-(4,5-dimethylthiazol-2-yl)-2,5-diphenyltetrazolium bromide) was used to determine cell death as originally described by Mosmann. Briefly, cells were seeded from 5,000 to 10,000 cells/well in 24-well plates (1 mL) depending on the cell type and allowed to attach overnight. The complexes were prepared in DMSO. The concentration of the complexes was calculated based on the elemental composition of the complexes determined by the elemental analyses. All cell viability experiments were carried out with a fixed concentration of 0.1% (v/v) DMSO. After 72 h of treatment, cells were incubated at 37° C. and 5% CO2 with 25 μL of MTT solution (5 mg/ml; Sigma-Aldrich) in 24-well plates for 3 to 4 h. After solubilization with 500 μL of DMSO, formazan was quantified spectrophotometrically with a microplate reader at 570 nm absorbance (ClarioSTAR, BMG LabTech). […] All the results were calculated from data obtained in at least three independent experiments performed in triplicate.
(§3) Two sets of experiments were conducted in parallel for each complex to be studied:
(§4) 1. The cells were incubated with the different complexes (in the dark) for 72 h.
(§5) 2. The cells were incubated for 8 h with the different complexes (in the dark), then irradiated for 10 min, followed by an incubation in the dark up to 72 h.

T24 bladder cancer cells = experiment: Cell viability assay (MTT), dark and blue light
Protocol: as §1, §2, §3, §4, §5

Hela cervix cancer cells = experiment: Cell viability assay (MTT), dark and blue light
In short: (§6)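 Two parallel arms: continuous 72 h dark exposure, or 8 h preincubation followed by 10 min blue light at 458 nm (9.6 W LEDs) and further dark incubation to 72 h. Final DMSO 0.1% (v/v); MTT formazan read at 570 nm, triplicate runs repeated at least three times.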

MCF7 breast cancer cells = experiment: Cell viability assay (MTT), dark and blue light
In short: as §6

[1] = tested on: MGHU3 bladder cancer cells; experiment: Cell viability assay (MTT), dark and blue light
In short: as §6

[2] = tested on: Scaber bladder cancer cells; experiment: Cell viability assay (MTT), dark and blue light
In short: as §6

[3] = tested on: cancer cells (all tumor cell lines tested); experiment: Cell viability assay (MTT), summary over the cancer cell lines tested
Protocol: as §1, §2, §3, §4, §5

[4] = tested on: C4-2B prostate cancer cells (PSMA-positive); experiment: Cell viability assay (MTT), dark and blue light; conditions: for Photosensitizing index (PI): dark vs blue light
In short: (§7)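 Readout after 72 h: MTT reduction at 570 nm. Light condition: 8 h dark loading, 10 min irradiation at 458 nm (LEDs, 9.6 W), dark to 72 h; control condition kept dark for the full 72 h.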

[5] = tested on: PC-3 prostate cancer cells (PSMA-negative); experiment: Cell viability assay (MTT), dark and blue light; conditions: for Photosensitizing index (PI): PC3, dark vs blue light; for SI (vs MC3T3) PC-3 Blue: blue light 458 nm
In short: as §7

[6] = 8 h in the dark, blue light 458 nm 10 min, then dark up to 72 h, read-out: GI50 C4-2b Blue
[7] = C4-2b, blue light, read-out: GI50
[8] = in the dark, 72 h, read-out: GI50 C4-2b Dark
[9] = PC3, blue light, read-out: GI50
[10] = in the dark, 72 h, read-out: GI50 PC-3 Dark

## F[P-](F)(F)(F)(F)F.O=C(CCCC[C@@H]1SC[C@@H]2NC(=O)N[C@@H]21)NCCCn1cc[n+]2[c]1[Ir-3]13([c]4ccccc4-c4sc5ccccc5[n+]41)([c]1ccccc1-c1sc4ccccc4[n+]13)[n+]1ccccc1-2 [I-k]
A549 lung cancer cells; 8 h in the dark, blue light 458 nm 10 min, then dark up to 72 h, read-out: GI50 A549 Blue
  GI50: 1.2 µM
A549 lung cancer cells; dark
  SI (vs MC3T3) A549 Dark: 2.1
A549 lung cancer cells; dark vs blue light 458 nm
  Photosensitizing index (PI) A549: 10.2
A549 lung cancer cells; in the dark, 72 h, read-out: GI50 A549 Dark
  GI50: 12.2 µM
T24 bladder cancer cells; 8 h in the dark, blue light 458 nm 10 min, then dark up to 72 h, read-out: GI50 T24 Blue
  GI50: 0.97 µM
T24 bladder cancer cells; dark
  SI (vs MC3T3) T24 Dark: 1.4
  SI (vs NIH-3T3) T24 Dark: 4.1
T24 bladder cancer cells; dark vs blue light 458 nm
  Photosensitizing index (PI) T24: 19.3
T24 bladder cancer cells; in the dark, 72 h, read-out: GI50 T24 Dark
  GI50: 18.7 µM
Hela cervix cancer cells; 8 h in the dark, blue light 458 nm 10 min, then dark up to 72 h, read-out: GI50 HeLa Blue
  GI50: 6.5 µM
Hela cervix cancer cells; dark
  SI (vs NIH-3T3) HeLa Dark: 1.5
Hela cervix cancer cells; dark vs blue light 458 nm
  Photosensitizing index (PI) HeLa: 7.8
Hela cervix cancer cells; in the dark, 72 h, read-out: GI50 HeLa Dark
  GI50: 50.6 µM
MCF7 breast cancer cells; 8 h in the dark, blue light 458 nm 10 min, then dark up to 72 h, read-out: GI50 MCF7 Blue
  GI50: 1.5 µM
MCF7 breast cancer cells; blue light 458 nm
  SI (vs NIH-3T3) MCF7 Blue: 20.7
MCF7 breast cancer cells; dark
  SI (vs MC3T3) MCF7 Dark: 1.7
MCF7 breast cancer cells; dark vs blue light 458 nm
  Photosensitizing index (PI) MCF7: 9.9
MCF7 breast cancer cells; in the dark, 72 h, read-out: GI50 MCF7 Dark
  GI50: 14.9 µM
[1]; 8 h in the dark, blue light 458 nm 10 min, then dark up to 72 h, read-out: GI50 MGHU3 Blue
  GI50: 2.9 µM
[1]; blue light 458 nm
  SI (vs MC3T3) MGHU3 Blue: 6.8
  SI (vs NIH-3T3) MGHU3 Blue: 10.7
[1]; dark vs blue light 458 nm
  Photosensitizing index (PI) MGHU3: 15.9
[1]; in the dark, 72 h, read-out: GI50 MGHU3 Dark
  GI50: 46.1 µM
[2]; 8 h in the dark, blue light 458 nm 10 min, then dark up to 72 h, read-out: GI50 Scaber Blue
  GI50: 1.8 µM
[2]; blue light 458 nm
  SI (vs MC3T3) Scaber Blue: 10.7
  SI (vs NIH-3T3) Scaber Blue: 17.3
[2]; dark
  SI (vs MC3T3) Scaber Dark: 1.0
  SI (vs NIH-3T3) Scaber Dark: 2.9
[2]; dark vs blue light 458 nm
  Photosensitizing index (PI) Scaber: 14.4
[2]; in the dark, 72 h, read-out: GI50 Scaber Dark
  GI50: 25.9 µM
[3]
  selectivity for cancer cells over non-tumor cells, in words: most selective effects under irradiated conditions
[3]; dark vs blue light 458 nm
  PI values, mean over cancer cells: 12.9 fold
  PI values, median over cancer cells: 12.2 fold
[3]; in the dark
  GI50 values, range over tumor cell lines, dark: little toxicity against tumor cells under dark conditions

## F[P-](F)(F)(F)(F)F.O=C(O)CC[C@H](NC(=O)N[C@@H](CCCCNC(=O)CCn1cc[n+]2[c]1[Ir-3]13([c]4cccc5ccc6ccc[n+]1c6c45)([c]1cccc4ccc5ccc[n+]3c5c14)[n+]1ccccc1-2)C(=O)O)C(=O)O [III-i]
[4]; [6]
  GI50: 2.7 µM
[4]; [7]
  GI50: 2.69 µM
[4]; C4-2b
  Photosensitizing index (PI): 5.5
[4]; C4-2b, dark, read-out: GI50
  GI50: 14.8 µM
[4]; blue light 458 nm
  SI (vs NIH-3T3) C4-2b Blue: 20.7
[4]; dark
  SI (vs NIH-3T3) C4-2b Dark: >6.7
[4]; [8]
  GI50: 14.8 µM
[5]; 8 h in the dark, blue light 458 nm 10 min, then dark up to 72 h, read-out: GI50 PC-3 Blue
  GI50: 8.7 µM
[5]; [9]
  GI50: 8.72 µM
[5]
  Photosensitizing index (PI): 6.6
  SI (vs MC3T3) PC-3 Blue: 4.7
  SI (vs MC3T3) PC-3 Dark: 4.4
  SI (vs NIH-3T3) PC-3 Dark: >1.7
[5]; PC3, dark, read-out: GI50
  GI50: 57.2 µM
[5]; [10]
  GI50: 57.2 µM

## F[P-](F)(F)(F)(F)F.O=C(O)CC[C@H](NC(=O)N[C@@H](CCCCNC(=O)CCn1cc[n+]2[c]1[Ir-3]13([c]4c(sc5ccccc45)-c4cccc[n+]41)([c]1c(sc4ccccc14)-c1cccc[n+]13)[n+]1ccccc1-2)C(=O)O)C(=O)O [III-j]
[4]; [6]
  GI50: 0.52 µM
[4]; [7]
  GI50: 0.52 µM
[4]; C4-2b
  Photosensitizing index (PI): 21.7
[4]; C4-2b, dark, read-out: GI50
  GI50: 11.3 µM
[4]; blue light 458 nm
  SI (vs MC3T3) C4-2b Blue: 24.0
  SI (vs NIH-3T3) C4-2b Blue: 20.7
[4]; dark
  SI (vs MC3T3) C4-2b Dark: >22.1
  SI (vs NIH-3T3) C4-2b Dark: >8.8
[4]; [8]
  GI50: 11.3 µM
[5]; [9]
  GI50: 1.94 µM
[5]
  Photosensitizing index (PI): 30.0
  SI (vs MC3T3) PC-3 Blue: 6.6
  SI (vs MC3T3) PC-3 Dark: >4.3
  SI (vs NIH-3T3) PC-3 Dark: >1.7
[5]; PC3, dark, read-out: GI50
  GI50: 58.2 µM
[5]; [10]
  GI50: 58.2 µM
